Experimental data as given in ChEMBL document CHEMBL1201862, “PubChem BioAssay data set” (2004).
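Dose response: 5 concentrations. Exposure: 48 h. Format: 96-well plates. Endpoint: linear interpolation; highest concentration if not reached. GI50 marks 50% less growth.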 Activity calls are given as the source filed them. Cut-off read from the data, not from the text of the source: active = GI50 up to about 1.1 µM and inactive = higher.

Experiments:
Assay in all cases: NCI-60 cell line screen, 48 h
U-251 = tested on: U-251
COLO 205 = tested on: COLO 205
OVCAR-4 = tested on: OVCAR-4
786-0 = tested on: 786-0
SN12C = tested on: SN12C
HOP-92 = tested on: HOP-92
EKVX = tested on: EKVX
KM-20L2 = tested on: KM-20L2
HOP-62 = tested on: HOP-62
K562 = tested on: K562
KM12 = tested on: KM12
HT-29 = tested on: HT-29
TK-10 = tested on: TK-10
OVCAR-3 = tested on: OVCAR-3
CCRF-CEM = tested on: CCRF-CEM
SF-295 = tested on: SF-295
UO-31 = tested on: UO-31

Measured: GI50

COc1cc2ccnc3c(=C(SC)SC)c(=O)c(c1OC)c23
inactive: U-251 42.7 µM | COLO 205 3.37 µM | OVCAR-4 15.8 µM | 786-0 11 µM | SN12C 15.2 µM | HOP-92 5.64 µM | EKVX > 10 µM | KM-20L2 15.7 µM | HOP-62 > 100 µM | K562 3.29 µM | KM12 22.4 µM | HT-29 12.3 µM | TK-10 14 µM | OVCAR-3 14.9 µM | CCRF-CEM 2.86 µM | SF-295 58.1 µM | UO-31 14.6 µM

CC(=O)ON(C(C)=O)C1C(COC(c2ccccc2)(c2ccccc2)c2ccccc2)OC2OC3(CCCC3)OC21 (stereo unspecified)
inactive: U-251 6.47 µM | COLO 205 > 23.2 µM | OVCAR-4 7.8 µM | 786-0 30.9 µM | SN12C 5.13 µM | HOP-92 2.42 µM | EKVX 16.9 µM | KM-20L2 5.19 µM | HOP-62 11.6 µM | K562 4.27 µM | KM12 5.09 µM | HT-29 > 26.6 µM | TK-10 > 81.7 µM | OVCAR-3 5.37 µM | CCRF-CEM 4.13 µM | SF-295 6 µM | UO-31 5.36 µM

CN(C)CN(C)c1nc(N(C)C)nc(N(C)C)n1
inactive: U-251 > 100 µM | COLO 205 > 100 µM | OVCAR-4 > 100 µM | 786-0 > 100 µM | SN12C > 100 µM | HOP-92 > 100 µM | EKVX > 100 µM | KM-20L2 > 100 µM | HOP-62 > 100 µM | K562 > 100 µM | KM12 > 100 µM | HT-29 > 100 µM | TK-10 > 100 µM | OVCAR-3 > 100 µM | CCRF-CEM > 100 µM | SF-295 > 100 µM | UO-31 > 100 µM

CC(=O)NC(CCCNC(=O)NCCCl)C(=O)NCc1ccccc1 (stereo unspecified)
inactive: U-251 > 100 µM | COLO 205 > 100 µM | OVCAR-4 > 100 µM | 786-0 > 100 µM | SN12C > 100 µM | HOP-92 > 100 µM | EKVX > 100 µM | KM-20L2 > 100 µM | HOP-62 > 100 µM | K562 > 100 µM | KM12 > 100 µM | HT-29 > 100 µM | TK-10 > 100 µM | OVCAR-3 > 100 µM | CCRF-CEM > 100 µM | SF-295 > 100 µM | UO-31 > 100 µM

C/C(=N/N)c1sc(-c2nc(C)c(/C(C)=N\N)s2)nc1C
inactive: U-251 > 100 µM | COLO 205 > 46.1 µM | OVCAR-4 > 100 µM | 786-0 > 55.6 µM | SN12C > 100 µM | HOP-92 > 100 µM | EKVX > 100 µM | KM-20L2 > 100 µM | HOP-62 > 100 µM | K562 47.3 µM | KM12 > 100 µM | HT-29 > 80.9 µM | TK-10 > 100 µM | OVCAR-3 > 100 µM | CCRF-CEM 27.2 µM | SF-295 > 100 µM | UO-31 > 100 µM

O=C1C=C(Nc2ccccc2C(=O)CC(=O)C(=O)Nc2ccc(Cl)cc2)c2ccccc2C1=O
inactive: U-251 20.1 µM | COLO 205 17.9 µM | OVCAR-4 10.9 µM | 786-0 16.3 µM | SN12C 12.6 µM | HOP-92 21.9 µM | EKVX 32.4 µM | KM-20L2 > 55.2 µM | HOP-62 17.7 µM | K562 3.24 µM | KM12 14.6 µM | HT-29 41.5 µM | TK-10 > 74.5 µM | OVCAR-3 2.39 µM | CCRF-CEM 3.59 µM | UO-31 14.7 µM

N#Cc1ccc(Sc2ccccc2)cc1C#N
inactive: U-251 36.1 µM | COLO 205 33.2 µM | OVCAR-4 > 100 µM | 786-0 28.1 µM | SN12C 60.3 µM | HOP-92 30.1 µM | EKVX > 100 µM | KM-20L2 75.3 µM | HOP-62 36.9 µM | K562 45.8 µM | KM12 > 100 µM | HT-29 > 100 µM | TK-10 80.5 µM | OVCAR-3 > 100 µM | CCRF-CEM 18.1 µM | SF-295 39.9 µM | UO-31 > 100 µM

OC(c1ccccc1)(c1ccccc1)c1ccncc1
inactive: U-251 > 100 µM | COLO 205 > 100 µM | OVCAR-4 > 100 µM | 786-0 66.1 µM | SN12C > 100 µM | HOP-92 74 µM | EKVX > 100 µM | KM-20L2 > 100 µM | HOP-62 > 100 µM | K562 > 100 µM | KM12 > 100 µM | HT-29 > 100 µM | TK-10 > 100 µM | OVCAR-3 > 100 µM | CCRF-CEM > 100 µM | SF-295 > 100 µM | UO-31 > 100 µM

COc1ccc(C)cc(O)c1=O
inactive: U-251 42.8 µM | COLO 205 30.8 µM | OVCAR-4 45 µM | 786-0 10.5 µM | SN12C 38.5 µM | HOP-92 26.2 µM | EKVX 38.8 µM | KM-20L2 40.2 µM | HOP-62 54.6 µM | K562 45.4 µM | KM12 > 100 µM | HT-29 44 µM | TK-10 > 100 µM | OVCAR-3 31.6 µM | CCRF-CEM 10.7 µM | SF-295 27.9 µM | UO-31 27.4 µM

C1=CC=C2NCCCCCC/N=C3\C=CC=CC=C3NCCc3cccc(c3)CC/N=C/2C=C1
inactive: U-251 18.7 µM | COLO 205 14.3 µM | OVCAR-4 12.7 µM | 786-0 10 µM | SN12C 29.7 µM | HOP-92 23.7 µM | EKVX 37 µM | KM-20L2 4.81 µM | HOP-62 10 µM | K562 4.59 µM | KM12 14.7 µM | HT-29 6.07 µM | OVCAR-3 27.7 µM | CCRF-CEM 15.9 µM | SF-295 16.9 µM | UO-31 16.7 µM

COc1ccc2nc3cc(Cl)ccc3c(Sc3ccccc3[N+](=O)[O-])c2c1
inactive: U-251 > 100 µM | COLO 205 17.3 µM | OVCAR-4 > 100 µM | 786-0 75.3 µM | SN12C 28.1 µM | HOP-92 90.2 µM | EKVX > 100 µM | KM-20L2 > 100 µM | HOP-62 69 µM | K562 > 100 µM | KM12 > 100 µM | TK-10 81.8 µM | OVCAR-3 > 100 µM | CCRF-CEM > 100 µM | SF-295 > 100 µM | UO-31 > 100 µM

Cc1ccc(SC2C(C)(C)N(C(C)C)P2(=O)N(C(C)C)C(C)C)cc1 (stereo unspecified)
inactive: U-251 > 59 µM | COLO 205 > 43.7 µM | OVCAR-4 > 64.9 µM | 786-0 82.4 µM | SN12C 38.6 µM | HOP-92 5.58 µM | EKVX 26.4 µM | KM-20L2 34 µM | HOP-62 > 100 µM | K562 17.7 µM | KM12 > 100 µM | HT-29 26 µM | TK-10 > 100 µM | OVCAR-3 55.5 µM | CCRF-CEM 31.8 µM | SF-295 70.8 µM | UO-31 46.1 µM
